In patent US12252524B2, “GIP/GLP1 co-agonist compounds” (Eli Lilly and Company, priority 2018, dated 2025) one finds EC50 and Ki data, which are given here for 5 molecules.

Numbered stars: 1 amine (or outer) side, 2 acyl side, 3 side chain; on linkers, the order of the positions; unused ones are H or OH. Square brackets hold non-standard residues; d marks the D form. Side chains are listed from the residue outwards. Peptide text beside a SMILES is read from it. * marks the point of attachment. C20 diacid = O=C(O)CCCCCCCCCCCCCCCCCCC(=O)*; γGlu = O=C(O)[C@H](CCC(=O)[*:2])N[*:1]; AEEA = NCCOCCOCC(=O)O; Aib = CC(C)(N)C(=O)O

For test [1], the target named is human GLP-1 receptor (GLP-1R) (Homo sapiens, UniProt P43220). Nature of the test: cAMP pharmacological functional assay in presence of casein, hGLP-1R. The note with it: HEK293 cells expressing hGLP-1R, 0.1% Casein, geometric mean; read-out: hGLP1R cAMP Rel EC50 nM (SEM, n). In kind it is cell-based.
The target of another test is T1, human Gcg receptor (Homo sapiens, UniProt P47871).
T1 construct: expressed in transfected cells; crude membranes
Description: [125I]-Glucagon binding (SPA), human Gcg receptor. Conditions: read-out: hGLcgR Ki, nM (SEM, n). The procedure, abridged: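 Cell pellets were lysed in hypotonic Tris buffer, pH 7.5, homogenized, and spun at low then high speed to give crude membranes. Ki was derived from the fitted IC50.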

Another test has as its target human GLP-1R (Homo sapiens, UniProt P43220). Nature of the test: [125I]-GLP-1 binding (SPA), human GLP-1 receptor. On the set-up: expressed in transfected cells; crude membranes. The note with it: read-out: hGLP1R Ki, (nM) (SEM, n). An outline of the steps:
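Ki values are geometric means with SEM over independent replicates on different days, derived from IC50s fitted by four-parameter nonlinear regression. The assay used crude cell membranes in HEPES buffer, pH 7.4, containing CaCl2, MgCl2, bacitracin and TWEEN-20.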

The target in test [2] is T2, gastric inhibitory peptide receptor (GIPR) (Homo sapiens, UniProt P48546).
T2 sequence (P48546 22-466): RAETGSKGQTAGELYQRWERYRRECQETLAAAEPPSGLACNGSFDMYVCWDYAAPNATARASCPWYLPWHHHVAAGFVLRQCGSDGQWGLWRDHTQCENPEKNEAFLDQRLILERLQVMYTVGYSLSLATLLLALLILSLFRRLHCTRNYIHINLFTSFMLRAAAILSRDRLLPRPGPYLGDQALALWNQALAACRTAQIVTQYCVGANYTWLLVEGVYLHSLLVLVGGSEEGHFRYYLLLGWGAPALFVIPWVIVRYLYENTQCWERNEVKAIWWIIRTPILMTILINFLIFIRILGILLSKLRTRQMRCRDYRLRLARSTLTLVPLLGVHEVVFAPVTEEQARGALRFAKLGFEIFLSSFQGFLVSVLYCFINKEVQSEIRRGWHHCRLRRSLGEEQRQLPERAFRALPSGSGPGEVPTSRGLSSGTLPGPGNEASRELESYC
Description: cAMP pharmacological functional assay in presence of casein, hGIPR. In kind it is cell-based. Conditions: HEK293 cells expressing hGIPR, 0.1% Casein, geometric mean; read-out: hGIPR cAMP Rel EC50 nM (SEM, n).

The target of the next test is T3, human GIP receptor (Homo sapiens, UniProt P48546).
T3 construct: expressed in transfected cells; crude membranes
T3 sequence (P48546 22-466): T2 sequence (P48546 22-466)
Description: [125I]-GIP binding (SPA), human GIP receptor. Conditions: read-out: hGIPR Ki, nM (SEM, n).

Sequence of human GLP-1 receptor (GLP-1R) (P43220 24-463): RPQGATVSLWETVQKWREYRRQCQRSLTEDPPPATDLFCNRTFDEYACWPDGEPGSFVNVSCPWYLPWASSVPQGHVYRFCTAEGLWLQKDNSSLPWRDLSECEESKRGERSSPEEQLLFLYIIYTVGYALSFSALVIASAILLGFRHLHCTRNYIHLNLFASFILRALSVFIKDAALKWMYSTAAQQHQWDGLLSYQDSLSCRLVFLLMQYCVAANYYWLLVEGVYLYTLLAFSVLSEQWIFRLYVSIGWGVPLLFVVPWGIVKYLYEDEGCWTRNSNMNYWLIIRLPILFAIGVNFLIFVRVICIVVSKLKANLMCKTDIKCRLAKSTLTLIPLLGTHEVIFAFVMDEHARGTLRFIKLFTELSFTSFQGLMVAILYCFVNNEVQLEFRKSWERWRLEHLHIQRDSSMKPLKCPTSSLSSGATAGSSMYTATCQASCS
Sequence of human GLP-1R (P43220 24-463): as above
T1 sequence (P47871 26-477): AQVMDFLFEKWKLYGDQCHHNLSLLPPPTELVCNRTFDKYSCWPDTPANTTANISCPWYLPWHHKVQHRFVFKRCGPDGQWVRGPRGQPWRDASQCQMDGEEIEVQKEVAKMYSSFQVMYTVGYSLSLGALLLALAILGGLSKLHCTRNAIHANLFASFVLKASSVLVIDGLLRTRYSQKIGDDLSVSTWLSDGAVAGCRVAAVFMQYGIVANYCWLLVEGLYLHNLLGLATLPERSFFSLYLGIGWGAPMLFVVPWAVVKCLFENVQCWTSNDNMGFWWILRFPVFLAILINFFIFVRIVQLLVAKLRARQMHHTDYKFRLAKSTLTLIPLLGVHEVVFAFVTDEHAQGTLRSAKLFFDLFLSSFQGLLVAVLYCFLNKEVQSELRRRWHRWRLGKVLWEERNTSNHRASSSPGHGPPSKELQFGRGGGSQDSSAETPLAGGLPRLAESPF

In the case of `CC[C@H](C)[C@H](NC(=O)[C@H](CC(C)C)NC(=O)C(C)(Cc1ccc(O)cc1)NC(=O)[C@@H](CCC(=O)O)NC(=O)[C@@H](NC(=O)[C@H](Cc1ccccc1)NC(=O)[C@H](C)NC(=O)C(C)(C)NC(=O)[C@H](CCC(N)=O)NC(=O)[C@H](C)NC(=O)[C@H](CCCCNC(=O)COCCOCCNC(=O)COCCOCCNC(=O)[C@@H](N)CCCCNC(=O)CCCCCCCCCCCCCCCCCCC(=O)O)NC(=O)[C@H](CCCN)NC(=O)[C@H](CC(=O)O)NC(=O)[C@H](CC(C)C)NC(=O)C(C)(CC(C)C)NC(=O)[C@@H](NC(=O)[C@H](CO)NC(=O)[C@H](Cc1ccncc1)NC(=O)[C@H](CC(=O)O)NC(=O)[C@H](CO)NC(=O)[C@@H](NC(=O)C(C)(Cc1ccccc1F)NC(=O)[C@@H](NC(=O)CNC(=O)[C@H](CCC(=O)O)NC(=O)C(C)(C)NC(=O)[C@@H](N)Cc1ccc(O)cc1)[C@@H](C)O)[C@@H](C)O)[C@@H](C)CC)[C@@H](C)CC)C(=O)N[C@@H](CCC(=O)O)C(=O)NCC(=O)NCC(=O)N1CCC[C@H]1C(=O)N[C@@H](CO)C(=O)N[C@@H](CO)C(=O)NCC(=O)N[C@@H](C)C(=O)N1CCC[C@H]1C(=O)N1CCC[C@H]1C(=O)N1CCC[C@H]1C(=O)N[C@@H](CO)C(N)=O` (stereo partly shown) [Example 251], the EC50 (commonly the concentration at which the effect is half-maximal) in test [1] was 0.081 nM; in test [2], 0.0292 nM. The inhibition constant Ki (in general, the equilibrium dissociation constant of an inhibitor or competing ligand from its target) on human Gcg receptor was 21.2 nM; on human GLP-1R, 1.09 nM; at human GIP receptor, 0.0249 nM.
Take `CC[C@H](C)[C@H](NC(=O)[C@H](CC(C)C)NC(=O)C(C)(Cc1ccc(O)cc1)NC(=O)[C@@H](CCC(=O)O)NC(=O)[C@@H](NC(=O)[C@H](Cc1ccccc1)NC(=O)[C@H](C)NC(=O)C(C)(C)NC(=O)[C@H](CCC(N)=O)NC(=O)[C@H](C)NC(=O)[C@H](CCCCNC(=O)COCCOCCNC(=O)COCCOCCNC(=O)[C@@H](N)CCCCNC(=O)CCCCCCCCCCCCCCCCCCC(=O)O)NC(=O)[C@H](CCCN)NC(=O)[C@H](CC(=O)O)NC(=O)[C@H](CC(C)C)NC(=O)C(C)(CC(C)C)NC(=O)[C@@H](NC(=O)[C@H](CO)NC(=O)[C@H](Cc1ccncc1)NC(=O)[C@H](CC(=O)O)NC(=O)[C@H](CO)NC(=O)[C@@H](NC(=O)C(C)(Cc1ccccc1F)NC(=O)[C@@H](NC(=O)CNC(=O)[C@H](CCC(=O)O)NC(=O)C(C)(C)NC(=O)[C@@H](N)Cc1ccc(O)cc1)[C@@H](C)O)[C@@H](C)O)[C@@H](C)CC)[C@@H](C)CC)C(=O)N[C@@H](C)C(=O)NCC(=O)NCC(=O)N1CCC[C@H]1C(=O)N[C@@H](CO)C(=O)N[C@@H](CO)C(=O)NCC(=O)N[C@@H](C)C(=O)N1CCC[C@H]1C(=O)N1CCC[C@H]1C(=O)N1CCC[C@H]1C(=O)N[C@@H](CO)C(N)=O` (stereo partly shown) [Example 252]: the EC50 worked out at 0.0483 nM in test [1] and 0.093 nM in test [2]. Moreover, the inhibition constant Ki came out at 26 nM at human Gcg receptor, 0.383 nM at human GLP-1R and 0.00971 nM on human GIP receptor.
`CC[C@H](C)[C@H](NC(=O)[C@H](CC(C)C)NC(=O)[C@H](Cc1ccc(O)cc1)NC(=O)[C@H](CCC(=O)O)NC(=O)[C@@H](NC(=O)[C@H](Cc1ccccc1)NC(=O)[C@H](C)NC(=O)[C@H](C)NC(=O)[C@H](CCC(N)=O)NC(=O)[C@H](C)NC(=O)[C@H](CCCCNC(=O)COCCOCCNC(=O)COCCOCCNC(=O)CC[C@H](NC(=O)CCCCCCCCCCCCCCCCCCC(=O)O)C(=O)O)NC(=O)[C@H](CCCCN)NC(=O)[C@H](CC(=O)O)NC(=O)[C@H](CC(C)C)NC(=O)[C@H](CC(C)C)NC(=O)[C@@H](NC(=O)[C@H](CO)NC(=O)[C@H](Cc1ccc(O)cc1)NC(=O)[C@H](CC(=O)O)NC(=O)[C@H](CO)NC(=O)[C@@H](NC(=O)[C@H](Cc1ccccc1)NC(=O)[C@@H](NC(=O)CNC(=O)[C@H](CCC(=O)O)NC(=O)C(C)(C)NC(=O)[C@@H](N)Cc1ccc(O)cc1)[C@@H](C)O)[C@@H](C)O)[C@@H](C)CC)[C@@H](C)CC)C(=O)N[C@@H](CCC(=O)O)C(=O)NCC(=O)NCC(=O)N1CCC[C@H]1C(=O)N[C@@H](CO)C(=O)N[C@@H](CO)C(=O)NCC(=O)N[C@@H](C)C(=O)N1CCC[C@H]1C(=O)N1CCC[C@H]1C(=O)N1CCC[C@H]1C(=O)N[C@@H](CO)C(N)=O` [Example 253] (H-Y[Aib]EGTFTSDYSILLDKK([AEEA-AEEA-γGlu-C20 diacid])AQAAFIEYLIEGGPSSGAPPPS-NH2): the EC50 in test [1] stood at 0.109 nM; in test [2], 0.219 nM. Further, the inhibition constant (Ki) on human Gcg receptor is > 912 nM; on human GLP-1R, 2.57 nM; on human GIP receptor it was 0.138 nM.
As to `CC[C@H](C)[C@H](NC(=O)[C@H](CC(C)C)NC(=O)[C@H](Cc1ccc(O)cc1)NC(=O)[C@H](CCC(=O)O)NC(=O)[C@@H](NC(=O)[C@H](Cc1ccccc1)NC(=O)[C@H](C)NC(=O)[C@H](CCC(N)=O)NC(=O)[C@H](CCC(N)=O)NC(=O)[C@H](C)NC(=O)[C@H](CCCCNC(=O)COCCOCCNC(=O)COCCOCCNC(=O)CC[C@H](NC(=O)CCCCCCCCCCCCCCCCCCC(=O)O)C(=O)O)NC(=O)[C@H](CCCCN)NC(=O)[C@H](CC(=O)O)NC(=O)[C@H](CC(C)C)NC(=O)[C@H](CC(C)C)NC(=O)[C@@H](NC(=O)[C@H](CO)NC(=O)[C@H](Cc1ccc(O)cc1)NC(=O)[C@H](CC(=O)O)NC(=O)[C@H](CO)NC(=O)[C@@H](NC(=O)[C@H](Cc1ccccc1)NC(=O)[C@@H](NC(=O)CNC(=O)[C@H](CCC(=O)O)NC(=O)C(C)(C)NC(=O)[C@@H](N)Cc1ccc(O)cc1)[C@@H](C)O)[C@@H](C)O)[C@@H](C)CC)[C@@H](C)CC)C(=O)N[C@@H](CCC(=O)O)C(=O)NCC(=O)NCC(=O)N1CCC[C@H]1C(=O)N[C@@H](CO)C(=O)N[C@@H](CO)C(=O)NCC(=O)N[C@@H](C)C(=O)N1CCC[C@H]1C(=O)N1CCC[C@H]1C(=O)N1CCC[C@H]1C(=O)N[C@@H](CO)C(N)=O` [Example 254] (H-Y[Aib]EGTFTSDYSILLDKK([AEEA-AEEA-γGlu-C20 diacid])AQQAFIEYLIEGGPSSGAPPPS-NH2), the EC50 turned out to be 0.0553 nM in test [1] and 0.215 nM in test [2]. In addition, the inhibitory constant (Ki) came out at 148 nM on human Gcg receptor, 2.58 nM at human GLP-1R and 0.108 nM at human GIP receptor.
For the molecule `CC[C@H](C)[C@H](NC(=O)[C@H](CC(C)C)NC(=O)[C@H](Cc1ccc(O)cc1)NC(=O)[C@H](CCC(=O)O)NC(=O)[C@@H](NC(=O)[C@H](Cc1ccccc1)NC(=O)[C@H](C)NC(=O)[C@H](Cc1c[nH]cn1)NC(=O)[C@H](CCC(N)=O)NC(=O)[C@H](C)NC(=O)[C@H](CCCCNC(=O)COCCOCCNC(=O)COCCOCCNC(=O)CC[C@H](NC(=O)CCCCCCCCCCCCCCCCCCC(=O)O)C(=O)O)NC(=O)[C@H](CCCCN)NC(=O)[C@H](CC(=O)O)NC(=O)[C@H](CC(C)C)NC(=O)[C@H](CC(C)C)NC(=O)[C@@H](NC(=O)[C@H](CO)NC(=O)[C@H](Cc1ccc(O)cc1)NC(=O)[C@H](CC(=O)O)NC(=O)[C@H](CO)NC(=O)[C@@H](NC(=O)[C@H](Cc1ccccc1)NC(=O)[C@@H](NC(=O)CNC(=O)[C@H](CCC(=O)O)NC(=O)C(C)(C)NC(=O)[C@@H](N)Cc1ccc(O)cc1)[C@@H](C)O)[C@@H](C)O)[C@@H](C)CC)[C@@H](C)CC)C(=O)N[C@@H](CCC(=O)O)C(=O)NCC(=O)NCC(=O)N1CCC[C@H]1C(=O)N[C@@H](CO)C(=O)N[C@@H](CO)C(=O)NCC(=O)N[C@@H](C)C(=O)N1CCC[C@H]1C(=O)N1CCC[C@H]1C(=O)N1CCC[C@H]1C(=O)N[C@@H](CO)C(N)=O` [Example 255] (H-Y[Aib]EGTFTSDYSILLDKK([AEEA-AEEA-γGlu-C20 diacid])AQHAFIEYLIEGGPSSGAPPPS-NH2; N-terminus assumed), the EC50 in test [1] was found to be 0.0407 nM; in test [2] it was 0.102 nM. In addition, the figures for the inhibition constant Ki at human Gcg receptor, at human GLP-1R and at human GIP receptor were 257 nM, 2.58 nM and 0.0772 nM, respectively.
